Reference: PubChem BioAssay (NCI)
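In this assay, cells in 96-well plates receive the compound at five concentrations for 48 hours. Endpoints are linearly interpolated between the surrounding concentrations. The concentration for 50% growth inhibition is given as GI50. TGI: concentration producing complete growth inhibition.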

Columns and labels:
Assay in all cases: NCI tumour cell line growth inhibition, 48 h
SK-MEL-5 melanoma = tested on: SK-MEL-5 melanoma
HOP-62 NSCLC = tested on: HOP-62 NSCLC
OVCAR-3 ovarian = tested on: OVCAR-3 ovarian
SK-MEL-28 melanoma = tested on: SK-MEL-28 melanoma
HCT-116 colon = tested on: HCT-116 colon
UACC-62 melanoma = tested on: UACC-62 melanoma
U251 CNS = tested on: U251 CNS
NCI-H23 lung = tested on: NCI-H23 lung
A498 renal = tested on: A498 renal
KM12 colon = tested on: KM12 colon

Structure (SMILES) | GI50 (SK-MEL-5 melanoma) [µM] | TGI (SK-MEL-5 melanoma) [µM] | GI50 (HOP-62 NSCLC) [µM] | TGI (HOP-62 NSCLC) [µM] | GI50 (OVCAR-3 ovarian) [µM] | TGI (OVCAR-3 ovarian) [µM] | GI50 (SK-MEL-28 melanoma) [µM] | TGI (SK-MEL-28 melanoma) [µM] | GI50 (HCT-116 colon) [µM] | TGI (HCT-116 colon) [µM] | GI50 (UACC-62 melanoma) [µM] | TGI (UACC-62 melanoma) [µM] | GI50 (U251 CNS) [µM] | TGI (U251 CNS) [µM] | GI50 (NCI-H23 lung) [µM] | TGI (NCI-H23 lung) [µM] | GI50 (A498 renal) [µM] | TGI (A498 renal) [µM] | GI50 (KM12 colon) [µM] | TGI (KM12 colon) [µM]
CCCCCCCCCCCCOC1C(CNCC2OC3OC(C)(C)OC3C2NC(=O)Nc2ccc(C(F)(F)F)cc2)OC2OC(C)(C)OC21 (centres undefined) | 8.15 | 15.1 | 8.1 | 15.1 | 4.59 | 13.3 | 7.28 | 14.5 | 2.46 | 4.7 | 8.63 | 15.9 | 4.63 | 12.2 | 8.78 | 19 | 8.45 | 15.5 | 3.7 | 8.45
COc1ccc2c(O)c(/C=C3\N=Nc4ncccc43)oc2c1C[C@H]1CCNC[C@H]1F | 0.942 | 10.6 | 0.409 | 3.94 | 0.431 | 11.4 | 2.22 | 12 | 0.131 | 2.15 | 0.476 | 2.38 | 0.307 | 3.29 | 0.475 | 4.7 | 0.238 | 2.91 | 0.39 | 4.79
CCOC(=O)C12CCSC1C1(C#N)C(C#N)=CC2(N=P(c2ccccc2)(c2ccccc2)c2ccccc2)n2c(=O)n(-c3ccccc3)c(=O)n21 (centres undefined) | – | 55.4 | – | > 100 | – | 89.8 | – | 73.3 | – | > 100 | – | 77.9 | – | > 100 | – | > 100 | – | > 100 | – | > 100
COc1cc(/C=C/C(=O)NC[C@]2(O)CCC3C4CCc5cc(O)ccc5C4CCC32C)ccc1O (some centres undefined) | 2.91 | 19.3 | 26.7 | > 100 | 10.3 | > 100 | 33.9 | > 100 | 7.97 | 49.3 | 16.8 | > 100 | 8.47 | > 100 | 5.63 | 34 | 74.1 | > 100 | 5.68 | 36
C[C@@H]1[C@H]2[C@H](C=C3[C@@H]4CC[C@H]5Cc6nc7c(nc6C[C@]5(C)[C@H]4C[C@@H](O)[C@@]32C)C[C@@H]2CC[C@H]3C4=C[C@@H]5O[C@@]6(CC[C@](C)(CO)O6)[C@@H](C)[C@@]5(O)[C@@]4(C)[C@H](O)C[C@@H]3[C@@]2(C)C7)O[C@]12CCC(C)(C)O2 | 0.783 | 5.2 | 0.861 | 5.73 | 5.1 | 31.8 | 0.518 | 21.3 | 0.69 | 31.2 | 0.348 | 2.54 | 0.2 | 7.06 | 1.61 | 23.1 | 0.236 | 0.543 | 0.73 | 16.2
Cc1cccc(Cl)c1NC(N)=S | – | > 100 | – | > 100 | – | 78.6 | – | > 100 | – | 35.9 | – | > 100 | – | 49.7 | – | > 100 | – | > 100 | – | > 100
COc1cccc2c1nc1cccc(OC)c1[n+]2[O-] | 6.96 | 20 | 4.14 | 17.8 | 15.7 | 39.2 | 6.31 | 20.2 | 3.64 | 16.9 | 3.35 | 14.1 | 6.83 | 21.3 | 2.56 | 18.9 | 2.87 | 16.2 | 11.6 | 28.4
Cc1ccc(/C=N/NS(=O)(=O)c2ccccc2)cc1 | – | > 100 | – | > 100 | – | > 100 | – | > 100 | – | > 100 | – | > 100 | – | > 100 | – | > 100 | – | > 100 | – | > 100
CCOc1ccccc1NC(=O)C(=O)C(C(=O)c1ccc2ccccc2c1)C1OC(=O)c2ccccc21 (centres undefined) | – | 24.5 | – | 31.2 | – | 52 | – | 35.5 | – | 22.3 | – | 21.3 | – | 22.5 | – | 26.2 | – | 30.5 | – | 59.5
NC1=NN(c2ccccc2)C(=O)C1/C(=N\NC(=O)c1cc2ccccc2cc1O)C(=O)Nc1nc([N+](=O)[O-])cs1 (centres undefined) | – | 48.9 | – | > 100 | – | 98.6 | – | > 100 | – | > 87.9 | – | 56.6 | – | > 100 | – | 56.3 | – | > 100 | – | > 80
COc1cc2cn3c4ccc(O)cc4nc(N)c3c2cc1OC | 0.0734 | 0.505 | 0.375 | 7.67 | 0.231 | 3 | 0.0518 | 15.8 | 0.0931 | 1.72 | 0.0705 | 1.63 | 0.11 | 8.32 | 0.968 | 4.88 | 0.141 | 1.06 | 0.885 | 4.48
COc1cc(-c2nc3ccccc3[nH]2)ccc1OCC(=O)N=Nc1c(O)[nH]c2ccc(Cl)cc12 | 1.72 | 3.2 | 1.79 | 3.44 | 0.96 | 2.2 | 1.81 | 3.22 | 0.4 | 1.53 | 1.72 | 3.18 | 0.468 | 1.88 | 1.73 | 3.48 | 2.18 | 5.42 | 1.41 | 3.24
Cc1cc(O)c(C2=NN(c3ccc(S(N)(=O)=O)cc3)C(c3ccccc3O)C2)cc1Cl (centres undefined) | 5.6 | 18.2 | 1.75 | 3.68 | 2.61 | 7.62 | 2.74 | 6.8 | 1.57 | 2.91 | 2.18 | 6.59 | 2.14 | 5.16 | 2 | 4.38 | 1.69 | 7.29 | 1.74 | 3.4
COc1cc([N+](=O)[O-])c(S(=O)(=O)O)cc1N | – | > 100 | – | > 100 | – | > 100 | – | > 100 | – | > 100 | – | > 100 | – | > 100 | – | > 100 | – | > 100 | – | > 100
C[n+]1c2cc(N)ccc2cc2ccc(N)cc21 (tested in a mixture with another compound) | 0.616 | 2.25 | 0.63 | 5.37 | 1.16 | 8.38 | 1.33 | 7.48 | 0.345 | – | 0.435 | 1.94 | 0.448 | 3.65 | 0.292 | 1.43 | 0.133 | 0.515 | 0.21 | 1.37
CCOC(=O)/C(=C/c1ccccc1)C(=O)c1ccccc1 | 2.91 | 9.35 | 2.01 | 4.37 | 8.14 | 20.4 | 2.42 | 6.59 | 2.04 | 4.39 | 2.73 | 9.15 | 3.22 | 13.6 | 3.75 | 16.5 | 3.08 | 13.1 | 2.82 | 7.54
CCc1nc(-n2c(CC)nc3ccccc3c2=O)nc(N)c1-c1ccc(Cl)cc1 | 6.84 | > 100 | 44.8 | > 100 | 31.8 | > 100 | > 100 | > 100 | > 26.2 | > 100 | 5.46 | > 100 | > 100 | > 100 | 10.9 | > 100 | 27.2 | > 94.5 | 38.5 | > 100
Clc1nc(Cl)c2ncn(C/C=C/Cn3cnc4c(Cl)nc(Cl)nc43)c2n1 | 16.5 | 31.1 | 15.6 | 32.9 | 12.2 | 25.4 | 17.5 | 33 | 10.7 | 24.4 | 17.5 | 32.1 | 16.8 | 30.7 | 18.7 | 38 | 21.5 | 41.2 | 17.3 | 33.9
Cc1c2cnccc2c(C)c2c1c1cc(C(=O)O)ccc1n2C | 0.897 | 2.44 | 0.642 | 7.52 | 1.35 | 5.68 | 1.36 | 3.71 | 0.373 | > 100 | 0.546 | 2.12 | 0.918 | 7.95 | 0.774 | 3.28 | 0.41 | 2.14 | 1.04 | 6.92
O=C(Nc1ccc(Cl)cc1F)c1cc(F)ccc1O | 0.274 | 0.847 | 1.5 | 19.8 | 0.528 | 10.8 | 0.485 | 2.63 | 0.702 | 3.51 | 0.289 | 1.15 | 0.832 | > 38.8 | 0.553 | 3.29 | 0.251 | 0.98 | 2.03 | 5.56
